US9328131B2, “Benzimidazolium compounds” (Boehringer Ingelheim International GmbH, priority 2013, dated 2016)

Assays:
Mouse kidney M-1 cells = test: Ussing Chamber assay: inhibition of amiloride sensitive short circuit current; type: cell-based; details: compound in the apical solution, 37° C.
Protocol: Ussing Chamber: Mouse kidney M-1 cells were cultivated in DMEM containing 5% FCS and 5 μM dexamethasone for 10 to 12 days on polyester transwell filters. Filters were inserted into a teflon-coated well-plate which fit into the ussing chamber system. Prior to measurement the medium of M−1 cells was replaced with Caco-2 transport buffer (Invitrogen, Germany). During measurements, the Ussing chamber temperature was kept at 37° C. Short circuit currents (l_sc) were measured in the voltage-clamp mode with the software package Lab View for data acquisition and analysis. The transepithelial electrical resistance (TEER) was determined by the application of voltage steps of ±5 mV every 5 sec. Compounds were administered at a final concentration of 3 μM or at increasing concentrations (1-3-10 μM) to the apical solution. At the end of each experiment the amiloride sensitive l_SC was measured by adding 3 μM amiloride to the apical compartment. Results are expressed as inhibition in percent of the amiloride effect or as IC50.
With the example compounds given above, the following IC50 values were determined in the Ussing Chamber assay: […]

[1] = Permeability in CALU-3 cells; type: in vitro ADME; details: human, CALU-3 monolayers, pH 7.4, 37° C., 10 μM compound
Protocol: Permeability in CALU-3 cells:
Permeability measurements across polarized, confluent CALU-3 cell monolayers grown on permeable filter supports are used to provide information on the potential of a compound to pass the lung epithelium. Apparent permeability coefficients (Papp) of the compounds across the CALU-3 cell monolayers are measured (pH 7.4, 37° C.) in apical-to-basal (AB) and basal-to-apical (BA) transport direction.
CALU-3 cells (1−2×10^5 cells/1 cm^2 area) are seeded on filter inserts (Costar transwell polycarbonate filters, 0.4 μm pore size) and cultured (DMEM) for 10-12 days until tight monolayers are formed. Compounds of interest are dissolved in appropriate solvent (DMSO, 10 mM stock solution). Stock solutions are diluted with HTP-4 buffer (128.13 mM NaCl, 5.36 mM KCl, 1 mM MgSO4, 1.8 mM CaCl2, 4.17 mM NaHCO3, 1.19 mM Na2HPO4×7H2O, 0.41 mM NaH2PO4×H2O, 15 mM HEPES, 20 mM glucose, 0.25% BSA, pH 7.4) to prepare the transport solutions (10 μM compound, final DMSO<=0.5%). The transport solution (TL) is applied to the apical or basolateral donor side for measuring A-B or B-A permeability (3 filter replicates), respectively. The receiver side contains the same buffer as the donor side. After 30 min of accommodation, samples are collected at the start t0=0 min and at the end of the experiment tn=90 min from the donor and at 0, 30, 60, and 90 min also from the receiver chamber. Volume removed is replenished by HTP-4 buffer. The compound concentration in the samples is measured by HPLC-MS/MS or scintillation counting. The permeability coefficient (Papp) and efflux ratio are calculated according to: Papp[cm/s]=(concentration receiver[nM]*volume receiver[mL]/time interval[sec])*(1/filter area)*(1/donor concentration[nM])
With example compounds given above, the following permeability values were determined in the CALU-3 cells assay: […]

SMILES	IC50 (Mouse kidney M-1 cells)	Papp A→B at 90 min, 10 μM ([1]; apical-to-basal)	Papp B→A at 90 min, 10 μM ([1]; basal-to-apical)	Papp A→B ([1]; apical-to-basal)	Papp B→A ([1]; basal-to-apical)
CCn1c(CNC(=O)c2nc(Br)c(N)nc2N)[n+](CCOCCOCCO)c2ccc(OC)cc21.O=C([O-])C(F)(F)F [Example 2.1]	1 nM	0.23 ×10⁻⁶ cm/s	0.4 ×10⁻⁶ cm/s	–	–
CC[n+]1c(CNC(=O)c2nc(Cl)c(N)nc2N)n(CCCP(=O)(O)O)c2ccc(OC)cc21.O=C([O-])C(F)(F)F [Example 4.1]	56 nM	< 0.34 ×10⁻⁶ cm/s	0.08 ×10⁻⁶ cm/s	–	–
CC[n+]1c(CNC(=O)c2nc(Cl)c(N)nc2N)n(C2CCN(C(C)=O)CC2)c2ccccc21.O=C[O-] [Example 3.1]	5 nM	1.7 ×10⁻⁶ cm/s	0.45 ×10⁻⁶ cm/s	–	–
CCOP(=O)(OCC)c1ccc(CCC[n+]2c(CNC(=O)c3nc(Cl)c(N)nc3N)n(CC)c3cc(OC)ccc32)cc1.O=C([O-])C(F)(F)F [Example 1.1]	2 nM	0.16 ×10⁻⁶ cm/s	0.28 ×10⁻⁶ cm/s	–	–
CCOP(=O)([O-])CCCn1c(CNC(=O)c2nc(Cl)c(N)nc2N)[n+](CC)c2cc(OC)ccc21 [Example 5.1]	29 nM	–	–	0.17 ×10⁻⁶ cm/s	0.05 ×10⁻⁶ cm/s
